From patent US20090306386A1, “Plant Extract Obtained by an Extraction Method by Means of Solvents of Plant Origin” (priority 2005, published 2009)

Test system: xanthine/xanthine oxidase
Assay: antioxidant activity, xanthine/xanthine oxidase test
Assay type: biochemical
Conditions: modified method of Rice Evans et al. and Masaki et al., n=10
Source text: The antioxidant activity of the turmeric extract obtained with solvent No. 2 (d-limonene) were studied using the xanthine/xanthine oxidase test according to the modified method of Rice Evans et al. (Techniques in free radical research, 1991, Elsevier, Paris) and Masaki et al. (Antioxygen scavenging activity of plant extracts, Biol. Pharm. Bull., 1995, 18 (1), 162-166).

## Oc1ncnc2[nH]ncc12 [allopurinol]
  antioxidant activity IC50: 0.06%
